Measurements taken from US7041694B1, “Cyclooxygenase-2 inhibition” (Cornell Research Foundation, Inc., priority 1997, dated 2006).

How the values were obtained:
[1] = test system: patient with alcoholic hepatitis; test: Treatment of a patient with alcoholic hepatitis (Example I); format: in vivo; settings: 6 mg/kg oral, daily; at the end of three weeks
Description: A patient with alcoholic hepatitis is admitted to a hospital complaining of nausea and upper abdominal pain. Liver function test results are total bilirubin of 4.0 mg/dl, direct bilirubin of 3.1 mg/dl, ALT of 100 IU/L, AST of 120 IU/L and prothrombin time of 15.1 seconds.
At the end of three weeks, the nausea and upper abdominal pain have resolved. Each of the blood tests has improved.

[2] = test system: patient with autoimmune hepatitis; test: Treatment of a patient with autoimmune hepatitis (Example II); format: in vivo; settings: 6 mg/kg oral for two months
Description: The patient is a person with new onset nausea, loss of appetite and right upper quadrant tenderness. They are noted to have elevated liver chemistries. Serologic workup is notable for positive antinuclear and antismooth muscle antibodies. They are considered to have autoimmune hepatitis. Liver biopsy is consistent with this diagnosis. […] The patient is subsequently maintained on an oral dose of 6 mg/kg of the same drug.

Row | SMILES | blood tests (liver function tests: total bilirubin, direct bilirubin, ALT, AST, prothrombin time) [1] | nausea and upper abdominal pain [1] | symptoms (nausea, loss of appetite, right upper quadrant tenderness) [2]
1 | Cc1ccc(-c2cc(C(F)(F)F)nn2-c2ccc(S(N)(=O)=O)cc2)cc1 [4-[5-(4-Methylphenyl)-3-(trifluoromethyl)-1H-pyrazol-1-yl]benzenesulfonamide] | same result | – | –
2 | NS(=O)(=O)c1ccc(-n2nc(C(F)(F)F)cc2-c2ccc(Cl)cc2)cc1 [4-[5-(4-Chlorophenyl)-3-(trifluoromethyl)-1H-pyrazol-1-yl]benzenesulfonamide] | improved | resolved | resolution of symptoms
